Measured values reported in PubChem BioAssay AID248 (DTP/NCI, 2004).
“And” between values parts separate entries of the source, which are not always exact repeats. Equal values may be shown once. Toxic doses and inconclusive results are not listed. Rule as the data show it: active = T/C of 150% or more; inactive = T/C below 125%.

Test system: L1210 leukemia ip in BDF1 mice, survival T/C
Experiment: NCI In Vivo Anticancer Drug Screen. Data for tumor model L1210 Leukemia (intraperitoneal) in B6D2F1 (BDF1) mice
Settings: higher = longer survival
How it was run: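 Antitumor effect is assessed in tumor-bearing animals. Survival in the compound arm is compared with a vehicle-dosed control arm and expressed as their quotient.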

Measured: T/C

CN(Cc1cnc2nc(N)nc(N)c2n1)c1ccc(C(=O)N[C@@H](CCC(=O)O)C(=O)O)cc1
inactive: endpoint: mean survival time, dose: 0.02 mg/kg/injection, schedule: Q01DX Z (ip), vehicle: saline 94 % of control | endpoint: mean survival time, dose: 0.03 mg/kg/injection, schedule: Q#A X Z (ip), vehicle: saline 107 % of control | endpoint: mean survival time, dose: 0.08 mg/kg/injection, schedule: Q01DX009 (ip), vehicle: sodium bicarbonate 99 % of control and 108 % of control | endpoint: mean survival time, dose: 0.1 mg/kg/injection, schedule: Q03HX008 (ip), vehicle: sodium bicarbonate 105 % of control | endpoint: mean survival time, dose: 0.1 mg/kg/injection, schedule: Q## X008 (other), vehicle: sodium bicarbonate 105 % of control | endpoint: mean survival time, dose: 0.12 mg/kg/injection, schedule: Q01DX Z (ip), vehicle: saline 108 % of control | endpoint: mean survival time, dose: 0.13 mg/kg/injection, schedule: Q01DX Z (sc), vehicle: saline 110 % of control | endpoint: mean survival time, dose: 0.13 mg/kg/injection, schedule: Q03HX016 (ip), vehicle: other 107 % of control | endpoint: mean survival time, dose: 0.15 mg/kg/injection, schedule: Q03HX008 (ip), vehicle: sodium bicarbonate 109 % of control | endpoint: mean survival time, dose: 0.15 mg/kg/injection, schedule: Q## X008 (other), vehicle: sodium bicarbonate 109 % of control | endpoint: mean survival time, dose: 0.19 mg/kg/injection, schedule: Q01DX009 (ip), vehicle: sodium bicarbonate 102 % of control | endpoint: mean survival time, dose: 0.19 mg/kg/injection, schedule: Q## X Z (ip), vehicle: saline 102 % of control | endpoint: mean survival time, dose: 0.38 mg/kg/injection, schedule: Q## X Z (ip), vehicle: saline 111 % of control | endpoint: mean survival time, dose: 0.49 mg/kg/injection, schedule: Q03HX003 (ip), vehicle: other 108 % of control | endpoint: mean survival time, dose: 0.49 mg/kg/injection, schedule: Q03HX004 (ip), vehicle: other 104 % of control | endpoint: mean survival time, dose: 0.49 mg/kg/injection, schedule: Q03HX005 (ip), vehicle: other 107 % of control | endpoint: mean survival time, dose: 0.49 mg/kg/injection, schedule: Q03HX006 (ip), vehicle: other 110 % of control | endpoint: mean survival time, dose: 0.5 mg/kg/injection, schedule: Q01DX006 (iv), vehicle: saline 112 % of control | endpoint: mean survival time, dose: 0.5 mg/kg/injection, schedule: Q07DX003 (ip), vehicle: saline 107 % of control | endpoint: mean survival time, dose: 0.73 mg/kg/injection, schedule: Q01DX001 (ip), vehicle: other 94 % of control | endpoint: mean survival time, dose: 0.73 mg/kg/injection, schedule: Q03HX002 (ip), vehicle: other 104 % of control | endpoint: mean survival time, dose: 0.73 mg/kg/injection, schedule: Q03HX003 (ip), vehicle: other 102 % of control | endpoint: mean survival time, dose: 0.73 mg/kg/injection, schedule: Q03HX004 (ip), vehicle: other 107 % of control | endpoint: mean survival time, dose: 0.73 mg/kg/injection, schedule: Q03HX006 (ip), vehicle: other 109 % of control | endpoint: mean survival time, dose: 0.75 mg/kg/injection, schedule: Q## X Z (ip), vehicle: other 108 % of control | endpoint: mean survival time, dose: 0.9 mg/kg/injection, schedule: Q07DX003 (ip), vehicle: saline 102 % of control | endpoint: mean survival time, dose: 1.1 mg/kg/injection, schedule: Q01DX001 (ip), vehicle: other 95 % of control | endpoint: mean survival time, dose: 1.1 mg/kg/injection, schedule: Q03HX002 (ip), vehicle: other 112 % of control | endpoint: mean survival time, dose: 1.1 mg/kg/injection, schedule: Q03HX003 (ip), vehicle: other 107 % of control | endpoint: mean survival time, dose: 1.1 mg/kg/injection, schedule: Q03HX005 (ip), vehicle: other 109 % of control | endpoint: mean survival time, dose: 1.5 mg/kg/injection, schedule: Q01DX001 (ip), vehicle: water 109 % of control and 110 % of control | endpoint: mean survival time, dose: 1.62 mg/kg/injection, schedule: Q03HX002 (ip), vehicle: other 108 % of control | endpoint: mean survival time, dose: 1.62 mg/kg/injection, schedule: Q03HX003 (ip), vehicle: other 109 % of control | endpoint: mean survival time, dose: 1.8 mg/kg/injection, schedule: Q07DX003 (ip), vehicle: saline 107 % of control | endpoint: mean survival time, dose: 2.0 mg/kg/injection, schedule: Q01DX001 (ip), vehicle: saline 107 % of control | endpoint: mean survival time, dose: 2.25 mg/kg/injection, schedule: Q01DX001 (ip), vehicle: water 111 % of control | endpoint: mean survival time, dose: 2.25 mg/kg/injection, schedule: Q## X006 (ip), vehicle: other 108 % of control | endpoint: mean survival time, dose: 3.4 mg/kg/injection, schedule: Q01DX009 (ip), vehicle: sodium bicarbonate 96 % of control | endpoint: mean survival time, dose: 3.5 mg/kg/injection, schedule: Q07DX003 (ip), vehicle: saline 111 % of control | endpoint: mean survival time, dose: 4.0 mg/kg/injection, schedule: Q01DX009 (ip), vehicle: other 93 % of control | endpoint: mean survival time, dose: 4.0 mg/kg/injection, schedule: Q01DX009 (ip), vehicle: sodium bicarbonate 95 % of control | endpoint: mean survival time, dose: 4.0 mg/kg/injection, schedule: Q01DX Z (oral), vehicle: saline 109 % of control | endpoint: mean survival time, dose: 4.0 mg/kg/injection, schedule: Q01DX Z (sc), vehicle: saline 109 % of control | endpoint: mean survival time, dose: 4.0 mg/kg/injection, schedule: Q12HX007 (ip), vehicle: other 109 % of control | endpoint: mean survival time, dose: 4.0 mg/kg/injection, schedule: Q#A X Z (ip), vehicle: saline 112 % of control | endpoint: mean survival time, dose: 5.0 mg/kg/injection, schedule: Q01DX009 (ip), vehicle: sodium bicarbonate 105 % of control | endpoint: mean survival time, dose: 6.0 mg/kg/injection, schedule: Q12HX005 (ip), vehicle: other 104 % of control | endpoint: mean survival time, dose: 6.0 mg/kg/injection, schedule: Q12HX006 (ip), vehicle: other 102 % of control | endpoint: mean survival time, dose: 6.3 mg/kg/injection, schedule: Q01DX009 (ip), vehicle: saline 108 % of control | endpoint: mean survival time, dose: 7.2 mg/kg/injection, schedule: Q## X032 (ip), vehicle: water 102 % of control | endpoint: mean survival time, dose: 8.0 mg/kg/injection, schedule: Q01DX006 (ip), vehicle: other 110 % of control | endpoint: mean survival time, dose: 8.0 mg/kg/injection, schedule: Q01DX007 (ip), vehicle: other 111 % of control | endpoint: mean survival time, dose: 8.0 mg/kg/injection, schedule: Q01DX008 (ip), vehicle: other 100 % of control | endpoint: mean survival time, dose: 8.0 mg/kg/injection, schedule: Q01DX009 (oral), vehicle: other 107 % of control | endpoint: mean survival time, dose: 8.0 mg/kg/injection, schedule: Q01DX015 (ip), vehicle: other 102 % of control | endpoint: mean survival time, dose: 8.0 mg/kg/injection, schedule: Q01DX Z (oral), vehicle: saline 97 % of control | endpoint: mean survival time, dose: 9.0 mg/kg/injection, schedule: Q01DX005 (ip), vehicle: other 100 % of control | endpoint: mean survival time, dose: 9.0 mg/kg/injection, schedule: Q12HX004 (ip), vehicle: other 111 % of control | endpoint: mean survival time, dose: 9.0 mg/kg/injection, schedule: Q## X008 (ip), vehicle: other 102 % of control | endpoint: mean survival time, dose: 13.0 mg/kg/injection, schedule: Q01DX004 (ip), vehicle: other 101 % of control | endpoint: mean survival time, dose: 13.0 mg/kg/injection, schedule: Q01DX005 (ip), vehicle: other 102 % of control | endpoint: mean survival time, dose: 13.0 mg/kg/injection, schedule: Q03HX005 (ip), vehicle: other 100 % of control | endpoint: mean survival time, dose: 13.0 mg/kg/injection, schedule: Q12HX004 (ip), vehicle: other 94 % of control | endpoint: mean survival time, dose: 13.5 mg/kg/injection, schedule: Q## X008 (ip), vehicle: other 93 % of control | endpoint: mean survival time, dose: 16.0 mg/kg/injection, schedule: Q03HX008 (ip), vehicle: other 98 % of control | endpoint: mean survival time, dose: 20.0 mg/kg/injection, schedule: Q01DX003 (ip), vehicle: other 101 % of control | endpoint: mean survival time, dose: 20.0 mg/kg/injection, schedule: Q## X008 (ip), vehicle: other 102 % of control | endpoint: mean survival time, dose: 30.0 mg/kg/injection, schedule: Q01DX003 (ip), vehicle: other 102 % of control | endpoint: mean survival time, dose: 30.0 mg/kg/injection, schedule: Q04DX004 (ip), vehicle: other 96 % of control | endpoint: mean survival time, dose: 32.0 mg/kg/injection, schedule: Q01DX001 (sc), vehicle: other 112 % of control | endpoint: mean survival time, dose: 40.0 mg/kg/injection, schedule: Q04DX003 (ip), vehicle: sodium bicarbonate 95 % of control | endpoint: mean survival time, dose: 45.0 mg/kg/injection, schedule: Q01DX002 (ip), vehicle: other 109 % of control | endpoint: mean survival time, dose: 67.0 mg/kg/injection, schedule: Q01DX002 (ip), vehicle: other 98 % of control | endpoint: mean survival time, dose: 67.0 mg/kg/injection, schedule: Q12HX002 (ip), vehicle: other 100 % of control | endpoint: mean survival time, dose: 70.0 mg/kg/injection, schedule: Q04DX002 (ip), vehicle: sodium bicarbonate 99 % of control | endpoint: mean survival time, dose: 112.0 mg/kg/injection, schedule: Q07DX003 (ip), vehicle: saline 97 % of control | endpoint: mean survival time, dose: 128.0 mg/kg/injection, schedule: Q01DX001 (oral), vehicle: other 108 % of control | endpoint: mean survival time, dose: 150.0 mg/kg/injection, schedule: Q03HX002 (ip), vehicle: other 93 % of control | endpoint: mean survival time, dose: 200.0 mg/kg/injection, schedule: Q04DX002 (ip), vehicle: saline 111 % of control | endpoint: mean survival time, dose: 250.0 mg/kg/injection, schedule: Q01DX001 (ip), vehicle: water 112 % of control | endpoint: mean survival time, dose: 256.0 mg/kg/injection, schedule: Q01DX001 (oral), vehicle: other 97 % of control | endpoint: mean survival time, dose: 256.0 mg/kg/injection, schedule: Q01DX001 (sc), vehicle: other 98 % of control | endpoint: mean survival time, dose: 300.0 mg/kg/injection, schedule: Q01DX001 (ip), vehicle: water 105 % of control | endpoint: mean survival time, dose: 375.0 mg/kg/injection, schedule: Q01DX001 (ip), vehicle: water 101 % of control | endpoint: mean survival time, dose: 512.0 mg/kg/injection, schedule: Q01DX001 (oral), vehicle: other 111 % of control | endpoint: mean survival time, dose: 37.5 micrograms/kg/injection, schedule: Q01DX009 (ip), vehicle: saline 104 % of control and 110 % of control | endpoint: mean survival time, dose: 70.0 micrograms/kg/injection, schedule: Q01DX Z (ip), vehicle: carboxymethylcellulose (CMC) 97 % of control | endpoint: mean survival time, dose: 75.0 micrograms/kg/injection, schedule: Q01DX009 (ip), vehicle: saline 107 % of control and 110 % of control | endpoint: mean survival time, dose: 100.0 micrograms/kg/injection, schedule: Q01DX015 (ip), vehicle: other 105 % of control | endpoint: mean survival time, dose: 140.0 micrograms/kg/injection, schedule: Q01DX Z (ip), vehicle: carboxymethylcellulose (CMC) 110 % of control | endpoint: mean survival time, dose: 150.0 micrograms/kg/injection, schedule: Q01DX015 (ip), vehicle: other 108 % of control | endpoint: mean survival time, dose: 6000.0 micrograms/kg/injection, schedule: Q01DX009 (ip), vehicle: Klucel (hydroxypropylcellulose) (HPC) 100 % of control | endpoint: median survival time, dose: 5.0 mg/kg/injection, schedule: Q01DX009 (ip), vehicle: other 110 % of control | endpoint: median survival time, dose: 8.0 mg/kg/injection, schedule: Q01DX001 (ip), vehicle: sodium bicarbonate 111 % of control | endpoint: median survival time, dose: 32.0 mg/kg/injection, schedule: Q01DX001 (ip), vehicle: sodium bicarbonate 110 % of control
